From publication PMC7717570, “Deciphering the enzymatic target of a new family of antischistosomal agents bearing a quinazoline scaffold using complementary computational tools” (Journal of Enzyme Inhibition and Medicinal Chemistry, 2020)
Read-outs that look alike come from different tables or passages of the source.

How the values were obtained:
[1] = Microsomal stability, mouse liver microsomes (S9), Phase-I (CYP450-NADPH); format: in vitro ADME; conditions: 5 µM
Procedure: (§1) Mouse or human liver microsomes (S9), reduced nicotinamide adenine dinucleotide phosphate (NADPH) generating system solutions and uridine glucuronosyltransferase (UGT) reaction mix (BD Biosciences) were kept at −80 °C. The test compounds and reference compound diclofenac were formulated in DMSO at […]. The assay was carried out based on the BD Biosciences Guidelines for Use (TF000017 Rev1.0) with minor adaptations. The metabolic stability of the compounds was studied through the CYP450 superfamily (Phase-I metabolism) by fortification with NADPH and through UGT enzymes (Phase-II metabolism) by fortification with uridine diphosphate glucuronic acid (UDPGA). For CYP450 and other NADPH dependent enzymes, the compounds were incubated at 5 µM together with 0.5 mg/mL S9 in potassium phosphate buffer in a reaction started by the addition of 1 mM NADP. At defined time points, 20 µL was withdrawn from the reaction mixture and 80 µL cold acetonitrile (ACN) was added to inactivate the enzymes and precipitate the protein. The mixture was vortexed for 30 s and centrifuged at 4 °C for 5 min to collect the supernatant. For UGT enzymes, the compounds were incubated at 5 µM together with 0.5 mg/mL S9 in a reaction started by the addition of 2 mM UDPGA cofactor. The loss of parent compound was determined using liquid chromatography (UPLC) (Waters Aquity^TM) coupled with tandem quadrupole mass spectrometry (MS^2) (Waters Xevo^TM), equipped with an electrospray ionisation (ESI) interface and operated in multiple reaction monitoring (MRM) mode.

[2] = system: Schistosoma mansoni mature worms; set-up: method as in PMID 30669086; conditions: cited from earlier work; for Worm killing (% of total) / Worm killing (female worms) / Worm killing (male worms): day 5, previously reported; for EC50: previously reported
[3] = Microsomal stability, mouse liver microsomes (S9), Phase-II (UGT enzymes); format: in vitro ADME; conditions: 5 µM
Procedure: as §1

[4] = system: S. mansoni-infected mouse model; test: In vivo antischistosomal efficacy in the S. mansoni-infected mouse model; set-up: species or system Schistosoma mansoni; conditions: mice; for Reduction in total worm burden (percentage change from infected control): sacrificed 10 days post-treatment
Procedure: PZQ was obtained from Egyptian International Pharmaceutical Industries Company (EIPICO) and aminobenzotriazole (ABT) from Fluorochem Ltd.
Male Swiss albino mice (CD-1) obtained from SBSC and weighing 18–20 g were housed under environmentally controlled room temperature of 20–22 °C, 12 h light/dark cycle and 50–60% humidity with food and water ad libitum throughout the acclimatisation and experimental periods. All the animal experiments were conducted in accordance with the Guide for Care and Use of Laboratory Animals and were approved by the Institutional Review Board of Theodor Bilharz Research Institute (TBRI).
Mice were infected with S. mansoni cercariae [provided by Schistosome Biology Supply Center (SBSC)] using body immersion[16] by exposure to 80 ± 10 cercariae/mouse. Infected mice were divided into six groups: groups 1 and 2 were treated the vehicle and the CYP450 inhibitor ABT respectively; groups 3 and 4 were dosed for 5 days with NPD-1246 at 20 and 10 mg/kg, respectively, while group 5 was treated with PZQ at 10 mg/kg/day for 5 days. Group 6 was treated with NPD-1246 combined with PZQ, each at 10 mg/kg/day for 5 days starting from week 7 post-infection. To minimise first-pass elimination, ABT was administered at 100 mg/kg/day for 5 days 2 h prior to each compound administration. NPD-1246 and PZQ were freshly suspended in 2% Cremophore-EL (Sigma-Aldrich). All drug administrations were performed orally.
Ten days post-treatment, all mice were sacrificed and perfused, and the number of worms recovered (worm burden) was quantified and sexed. The number of eggs per gram of liver or intestinal tissue was counted. The percentage of egg developmental stages (oogram pattern) was studied[19] in which eggs at different stages of maturity (from I to IV) were identified and counted. Mature eggs and dead eggs (granular, dark, and semi-transparent) were also counted in three fragments of intestine and the mean number of each stage was calculated.
The percentage reduction of worm or egg burden in each treated group was calculated. […] Results are expressed as mean ± SEM. A two-tailed, unpaired Student’s t-test was used to detect the significance of difference between the means of different groups. Results are considered significant if p value is <0.05.

[5] = system: Schistosoma mansoni worm couples; set-up: method as in PMID 30669086; conditions: previously reported, cited from earlier work
[6] = oral 20 mg/kg/day for 5 days with ABT

## O=c1c2ccccc2n(Cc2ccc(C(F)(F)F)cc2)c(=O)n1Cc1ccccc1 [NPD-1246, 3-Benzyl-1-(4-(trifluoromethyl)benzyl)quinazoline-2,4(1H,3H)-dione]
[1]; 0 h
  % Parent compound remaining upon incubation: 100%
[1]; 0.25 h
  % Parent compound remaining upon incubation: 66%
[1]; 0.5 h
  % Parent compound remaining upon incubation: 27%
[1]; 1 h
  % Parent compound remaining upon incubation: 8%
[2]; 5 µM
  Worm killing (% of total): 0%
[2]; 10 µM
  Worm killing (% of total): 0%
[2]; 25 µM
  Worm killing (% of total): 0%
[2]; 50 µM
  Worm killing (% of total): 53%
[2]; 100 µM
  Worm killing (% of total): 100%
[2]; female worms, 5 µM
  Worm killing (female worms): 0
[2]; female worms, 10 µM
  Worm killing (female worms): 0
[2]; female worms, 25 µM
  Worm killing (female worms): 0
[2]; female worms, 50 µM
  Worm killing (female worms): 57
[2]; female worms, 100 µM
  Worm killing (female worms): 100
[2]; female worms, read-out: EC50 (worm killing, female worms)
  EC50: 50 µM
[2]; male and female worms, read-out: EC50 (worm killing)
  EC50: 50 µM
[2]; male worms, 5 µM
  Worm killing (male worms): 0
[2]; male worms, 10 µM
  Worm killing (male worms): 0
[2]; male worms, 25 µM
  Worm killing (male worms): 0
[2]; male worms, 50 µM
  Worm killing (male worms): 50
[2]; male worms, 100 µM
  Worm killing (male worms): 100
[2]; male worms, read-out: EC50 (worm killing, male worms)
  EC50: 50 µM
[3]; 0 h
  % Parent compound remaining upon incubation: 100%
[3]; 0.25 h
  % Parent compound remaining upon incubation: 111%
[3]; 0.5 h
  % Parent compound remaining upon incubation: 111%
[3]; 1 h
  % Parent compound remaining upon incubation: 106%
[4]; [6]
  Percentage of dead eggs compared to the infected untreated group: significant increase
  Reduction in intestinal tissue egg load (percentage change from infected control): 18%
[4]; oral 20 mg/kg/day for 5 days with ABT 100 mg/kg/day
  Reduction in total worm burden (percentage change from infected control): 24%
[5]; 5 µM
  Uncoupling: No
[5]; 10 µM
  Uncoupling: No
[5]; 25 µM, listed as NPD-1246 (1)
  Uncoupling: Uncoupling and Yes
[5]; 50 µM
  Reduction in number of eggs (%): 100%
[5]; 50 µM, listed as NPD-1246 (1)
  Uncoupling: Uncoupling and Yes
[5]; 100 µM
  Reduction in number of eggs (%): 100%
[5]; 100 µM, listed as NPD-1246 (1)
  Uncoupling: Uncoupling and Yes

## O=C(C1CCCCC1)N1CC(=O)N2CCc3ccccc3C2C1 (stereo not drawn) [PZQ, praziquantel, reference compound]
[4]; oral 10 mg/kg/day (each) for 5 days with ABT
  Reduction in intestinal tissue egg load (percentage change from infected control): 70%
[4]; oral 10 mg/kg/day (each) for 5 days with ABT 100 mg/kg/day
  Reduction in total worm burden (percentage change from infected control): 63%
[4]; oral 10 mg/kg/day (each) for 5 days with ABT, + = increase
  Reduction in hepatic tissue egg load (percentage change from infected control): 38%
